Assay results: US8680269B2, “Pesticidal compositions” (Dow AgroSciences, LLC., priority 2009, dated 2014)

Experiments:
Type in all cases: in vivo
[1] = tested on: corn earworm (CEW; Helicoverpa zea); test: Insecticidal test for corn earworm, 128-well diet tray assay; conditions: 144 h, 50 μg/cm2 on artificial diet, second instar larvae, six days at 25° C.
In short: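 Second-instar H. zea larvae, three to five per well, on artificial diet surface-treated with 50 μg/cm^2 compound (90:10 acetone-water, dried), eight wells per compound. Held 6 days at 25° C, 14:10 light-dark; percent mortality averaged over wells.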

[2] = tested on: beet armyworm (BAW; Spodoptera exigua); test: Insecticidal test for beet armyworm, 128-well diet tray assay; conditions: 144 h, 50 μg/cm2 on artificial diet, second instar larvae, six days at 25° C.
In short: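 Second-instar larvae, three to five per well, fed on artificial diet surface-treated with 50 μg/cm^2 compound (applied in 90:10 acetone-water, dried). Held 6 days at 25 °C, 14:10 light-dark; percent mortality scored per well and averaged over eight wells.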

[3] = tested on: green peach aphid (Myzus persicae); test: Insecticidal test for green peach aphid in foliar spray assay; conditions: 72 h, 200 ppm foliar spray on cabbage seedlings, graded after three days, Abbott corrected % control, read-out: Mortality GPA 200 ppm
Method: Cabbage seedlings grown in 3-inch pots, with 2-3 small (3-5 cm) true leaves, were used as test substrate. The seedlings were infested with 20-50 green peach aphids (wingless adult and nymph) one day prior to chemical application. Four pots with individual seedlings were used for each treatment. Compounds (2 mg) were dissolved in 2 mL of acetone/methanol (1:1) solvent, forming stock solutions of 1000 ppm. The stock solutions were diluted 5× with 0.025% Tween 20 in H2O to obtain the test solution at 200 ppm. A hand-held Devilbiss sprayer was used for spraying a solution to both sides of cabbage leaves until runoff. Reference plants (solvent check) were sprayed with the diluent only. Treated plants were held in a holding room for three days at approximately 25° C. and 40% relative humidity (RH) prior to grading. Evaluation was conducted by counting the number of live aphids per plant under a microscope. Insecticidal activity data, measured by using Abbott's correction formula, are presented in Table 2: Corrected % Control=100*(X−Y)/X • where X=No. of live aphids on solvent check plants • Y=No. of live aphids on treated plants

CNC(=S)N/N=C/c1ccc(-c2ncn(-c3ccc(OC(F)(F)F)cc3)n2)cc1 [Compound 13]
mortality at 50 µg/cm2 [1]: 50 to 100% | mortality at 50 µg/cm2 [2]: 50 to 100% | mortality at 200 ppm [3]: < 80%

FC(F)(F)Oc1ccc(-n2cnc(-c3ccc(/C=N/NC(=S)NC4CCCCC4)cc3)n2)cc1 [Compound 25]
mortality at 50 µg/cm2 [1]: 50 to 100% | mortality at 50 µg/cm2 [2]: 50 to 100% | mortality at 200 ppm [3]: < 80%

COc1ccc(NC(=S)N/N=C/c2ccc(-n3cnc(-c4ccc(C(F)(F)F)cc4)c3)cc2)cc1 [Compound 69]
mortality at 50 µg/cm2 [1]: 50 to 100% | mortality at 50 µg/cm2 [2]: 50 to 100% | mortality at 200 ppm [3]: < 80%

Cc1cccc(C)c1NC(=S)N/N=C/c1ccc(-c2ncn(-c3ccc(OC(F)(F)C(F)(F)F)cc3)n2)cc1 [Compound 97]
mortality at 50 µg/cm2 [1]: 50 to 100% | mortality at 50 µg/cm2 [2]: 50 to 100% | mortality at 200 ppm [3]: < 80%

FC(F)(F)Oc1ccc(-n2cnc(-c3ccc(/C=N/NC(=S)NC4CC4)cc3)n2)cc1 [Compound 23]
mortality at 50 µg/cm2 [1]: 50 to 100% | mortality at 50 µg/cm2 [2]: 50 to 100% | mortality at 200 ppm [3]: < 80%

CN(C)c1ccc(CNC(=S)N/N=C/c2ccc(-c3ncn(-c4ccc(OC(F)(F)F)cc4)n3)cc2)cc1 [Compound 37]
mortality at 50 µg/cm2 [1]: 50 to 100% | mortality at 50 µg/cm2 [2]: 50 to 100% | mortality at 200 ppm [3]: < 80%

O=C(N/N=C/c1ccc(-c2ncn(-c3ccc(OC(F)(F)F)cc3)n2)cc1)Nc1ccc(F)cc1 [Compound 35]
mortality at 50 µg/cm2 [1]: < 50% | mortality at 50 µg/cm2 [2]: < 50% | mortality at 200 ppm [3]: < 80%

COc1ccc(NC(=S)N/N=C/c2ccc(-c3ncn(-c4ccc(OC(F)(F)F)cc4)n3)cc2)c(F)c1 [Compound 50]
mortality at 50 µg/cm2 [1]: 50 to 100% | mortality at 50 µg/cm2 [2]: 50 to 100% | mortality at 200 ppm [3]: < 80%

COc1ccc(NC(=S)N/N=C/c2ccc(-c3ncn(-c4ccc(OC(F)(F)F)cc4)n3)cc2)c(C)c1 [Compound 46]
mortality at 50 µg/cm2 [1]: 50 to 100% | mortality at 50 µg/cm2 [2]: 50 to 100% | mortality at 200 ppm [3]: < 80%

O=C(N/N=C/c1ccc(-c2ncn(-c3ccc(OC(F)(F)F)cc3)n2)cc1)Nc1c(Cl)cccc1Cl [Compound 120]
mortality at 50 µg/cm2 [1]: 50 to 100% | mortality at 50 µg/cm2 [2]: 50 to 100% | mortality at 200 ppm [3]: < 80%

CCOc1ccc(NC(=S)N/N=C/c2ccc(-c3ncn(-c4ccc(OC(F)(F)F)cc4)n3)cc2)cc1 [Compound 58]
mortality at 50 µg/cm2 [1]: 50 to 100% | mortality at 50 µg/cm2 [2]: 50 to 100% | mortality at 200 ppm [3]: < 80%

CS(=O)(=O)c1ccccc1NC(=S)N/N=C/c1ccc(-c2ncn(-c3ccc(OC(F)(F)F)cc3)n2)cc1 [Compound 52]
mortality at 50 µg/cm2 [1]: 50 to 100% | mortality at 50 µg/cm2 [2]: 50 to 100% | mortality at 200 ppm [3]: < 80%

CN(C)c1ccc(NC(=S)N/N=C/c2ccc(-c3ncn(-c4ccc(OC(F)(F)C(F)(F)F)cc4)n3)cc2)cc1 [Compound 36]
mortality at 50 µg/cm2 [1]: 50 to 100% | mortality at 50 µg/cm2 [2]: 50 to 100% | mortality at 200 ppm [3]: < 80%

Fc1cccc(Cl)c1NC(=S)N/N=C/c1ccc(-c2ncn(-c3ccc(OC(F)(F)F)cc3)n2)cc1 [Compound 63]
mortality at 50 µg/cm2 [1]: 50 to 100% | mortality at 50 µg/cm2 [2]: 50 to 100% | mortality at 200 ppm [3]: < 80%

CN(C)CCCNC(=S)N/N=C/c1ccc(-c2ncn(-c3ccc(OC(F)(F)F)cc3)n2)cc1 [Compound 19]
mortality at 50 µg/cm2 [1]: < 50% | mortality at 50 µg/cm2 [2]: < 50% | mortality at 200 ppm [3]: < 80%

CCc1cccc(CC)c1NC(=S)N/N=C/c1ccc(-c2ncn(-c3ccc(OC(F)(F)F)cc3)n2)cc1 [Compound 76]
mortality at 50 µg/cm2 [1]: 50 to 100% | mortality at 50 µg/cm2 [2]: 50 to 100% | mortality at 200 ppm [3]: < 80%

COc1cccc(C)c1NC(=S)N/N=C/c1ccc(-c2ncn(-c3ccc(OC(F)(F)F)cc3)n2)cc1 [Compound 73]
mortality at 50 µg/cm2 [1]: 50 to 100% | mortality at 50 µg/cm2 [2]: 50 to 100% | mortality at 200 ppm [3]: < 80%

CN(C)c1ccc(NC(=S)N/N=C/c2ccc(-c3ncn(-c4ccc(OC(F)(F)F)cc4)n3)cc2)cc1 [Compound 1]
mortality at 50 µg/cm2 [1]: 50 to 100% | mortality at 50 µg/cm2 [2]: 50 to 100% | mortality at 200 ppm [3]: < 80%

FC(F)(F)Oc1ccc(-n2cnc(-c3ccc(/C=N/NC(=S)Nc4c(Cl)cccc4Cl)cc3)n2)cc1 [Compound 29]
mortality at 50 µg/cm2 [1]: 50 to 100% | mortality at 50 µg/cm2 [2]: 50 to 100% | mortality at 200 ppm [3]: < 80%

CN(C)C(=S)N/N=C/c1ccc(-c2ncn(-c3ccc(OC(F)(F)F)cc3)n2)cc1 [Compound 11]
mortality at 50 µg/cm2 [1]: 50 to 100% | mortality at 50 µg/cm2 [2]: 50 to 100% | mortality at 200 ppm [3]: < 80%

CN(C)c1cccc(NC(=S)N/N=C/c2ccc(-c3ncn(-c4ccc(OC(F)(F)F)cc4)n3)cc2)c1 [Compound 2, N-(3-(dimethylamino)phenyl)-2-(4-(1-(4-(trifluoromethoxy)phenyl)-1H-1,2,4-triazol-3-yl)benzylidene)hydrazinecarbothioamide]
mortality at 50 µg/cm2 [1]: 50 to 100% | mortality at 50 µg/cm2 [2]: 50 to 100% | mortality at 200 ppm [3]: < 80%

FC(F)(F)c1ccc(-n2cnc(-c3ccc(/C=N/NC(=S)NCCc4ccccn4)cc3)n2)cc1 [Compound 5]
mortality at 50 µg/cm2 [1]: 50 to 100% | mortality at 50 µg/cm2 [2]: 50 to 100% | mortality at 200 ppm [3]: < 80%

CNc1ccc(NC(=S)N/N=C/c2ccc(-c3ncn(-c4ccc(OC(F)(F)F)cc4)n3)cc2)cc1 [Compound 42]
mortality at 50 µg/cm2 [1]: 50 to 100% | mortality at 50 µg/cm2 [2]: 50 to 100% | mortality at 200 ppm [3]: < 80%

COc1ccc(NC(=S)N/N=C/c2ccc(-c3ncn(-c4ccc(OC(F)(F)F)cc4)n3)cc2)c(OC)c1 [Compound 45]
mortality at 50 µg/cm2 [1]: 50 to 100% | mortality at 50 µg/cm2 [2]: 50 to 100% | mortality at 200 ppm [3]: < 80%

COc1ccc(NC(=S)N/N=C/c2ccc(-c3ncn(-c4ccc(OC(F)(F)F)cc4)n3)cc2)cc1 [Compound 28]
mortality at 50 µg/cm2 [1]: 50 to 100% | mortality at 50 µg/cm2 [2]: 50 to 100% | mortality at 200 ppm [3]: < 80%

FC(F)(F)Oc1ccc(-n2cnc(-c3ccc(/C=N/NC(=S)NCCN4CCOCC4)cc3)n2)cc1 [Compound 16]
mortality at 50 µg/cm2 [1]: 50 to 100% | mortality at 50 µg/cm2 [2]: 50 to 100% | mortality at 200 ppm [3]: < 80%

CC(=O)N(C)c1ccc(NC(=S)N/N=C/c2ccc(-c3ncn(-c4ccc(OC(F)(F)F)cc4)n3)cc2)cc1 [Compound 40]
mortality at 50 µg/cm2 [1]: 50 to 100% | mortality at 50 µg/cm2 [2]: 50 to 100% | mortality at 200 ppm [3]: < 80%

Fc1ccc(NC(=S)N/N=C/c2ccc(-c3ncn(-c4ccc(OC(F)(F)F)cc4)n3)cc2)cc1 [Compound 10]
mortality at 50 µg/cm2 [1]: 50 to 100% | mortality at 50 µg/cm2 [2]: 50 to 100% | mortality at 200 ppm [3]: < 80%

CN(C)c1ccccc1CNC(=S)N/N=C/c1ccc(-c2ncn(-c3ccc(OC(F)(F)F)cc3)n2)cc1 [Compound 39]
mortality at 50 µg/cm2 [1]: 50 to 100% | mortality at 50 µg/cm2 [2]: 50 to 100% | mortality at 200 ppm [3]: < 80%

COc1ccccc1NC(=S)N/N=C/c1ccc(-c2ncn(-c3ccc(OC(F)(F)F)cc3)n2)cc1 [Compound 74]
mortality at 50 µg/cm2 [1]: 50 to 100% | mortality at 50 µg/cm2 [2]: 50 to 100% | mortality at 200 ppm [3]: < 80%

CC(=O)Nc1ccc(NC(=S)N/N=C/c2ccc(-c3ncn(-c4ccc(OC(F)(F)F)cc4)n3)cc2)cc1 [Compound 41]
mortality at 50 µg/cm2 [1]: 50 to 100% | mortality at 50 µg/cm2 [2]: 50 to 100% | mortality at 200 ppm [3]: < 80%

N#Cc1ccccc1NC(=S)N/N=C/c1ccc(-c2ncn(-c3ccc(OC(F)(F)F)cc3)n2)cc1 [Compound 53]
mortality at 50 µg/cm2 [1]: 50 to 100% | mortality at 50 µg/cm2 [2]: 50 to 100% | mortality at 200 ppm [3]: < 80%

FC(F)(F)Oc1ccc(-n2cnc(-c3ccc(/C=N/NC(=S)Nc4ccccc4)cc3)n2)cc1 [Compound 14]
mortality at 50 µg/cm2 [1]: 50 to 100% | mortality at 50 µg/cm2 [2]: 50 to 100% | mortality at 200 ppm [3]: < 80%

Nc1ccc(NC(=S)N/N=C/c2ccc(-c3ncn(-c4ccc(OC(F)(F)F)cc4)n3)cc2)cc1 [Compound 81]
mortality at 50 µg/cm2 [1]: 50 to 100% | mortality at 50 µg/cm2 [2]: 50 to 100% | mortality at 200 ppm [3]: < 80%

FC(F)(F)Oc1ccc(-n2cnc(-c3ccc(/C=N/NC(=S)NCc4ccccc4)cc3)n2)cc1 [Compound 3, N-benzyl-2-(4-(1-(4-(trifluoromethoxy)phenyl)-1H-1,2,4-triazol-3-yl)benzylidene)hydrazinecarbothioamide]
mortality at 50 µg/cm2 [1]: < 50% | mortality at 50 µg/cm2 [2]: 50 to 100% | mortality at 200 ppm [3]: < 80%

Cc1cccc(C)c1NC(=S)N/N=C/c1ccc(-c2ncn(-c3ccc(OC(F)(F)F)cc3)n2)cc1 [Compound 78]
mortality at 50 µg/cm2 [1]: 50 to 100% | mortality at 50 µg/cm2 [2]: 50 to 100% | mortality at 200 ppm [3]: < 80%

COc1cccc(OC)c1NC(=S)N/N=C/c1ccc(-c2ncn(-c3ccc(OC(F)(F)F)cc3)n2)cc1 [Compound 57]
mortality at 50 µg/cm2 [1]: 50 to 100% | mortality at 50 µg/cm2 [2]: 50 to 100% | mortality at 200 ppm [3]: < 80%

CC(=O)c1ccc(NC(=S)N/N=C/c2ccc(-c3ncn(-c4ccc(OC(F)(F)F)cc4)n3)cc2)cc1 [Compound 33]
mortality at 50 µg/cm2 [1]: 50 to 100% | mortality at 50 µg/cm2 [2]: 50 to 100% | mortality at 200 ppm [3]: < 80%
